Results reported in paper PMC10683482, “Offsetting Low-Affinity Carbohydrate Binding with Covalency to Engage Sugar-Specific Proteins for Tumor-Immune Proximity Induction” (ACS Central Science, 2023).
Where two headings read alike, the source gives them in different places.

System: monoclonal anti-23F antibody
Experiment: BLI affinity of rhamnose probes for monoclonal anti-23F
Assay type: binding, human
Settings: for koff: dissociation in 100 mM L-rhamnose; for anti-23F recognition of glycoside variant: 125 nM anti-23F association
Description: Figure 1 Affinity determination of endogenous and monoclonal antibody sources for L-rhamnose glycoside variants. A. Chemical structures of rhamnose affinity probes. B/C. Approximation of antirhamnose antibody binding affinity for probes 1–3 using biolayer interferometry. B. Purified human serum IgG is used to estimate the affinity of endogenous polyclonal serum antirhamnose antibodies for each affinity probe 1–3. C. Monoclonal anti-23F antibody is used to estimate the potential affinity of vaccine-induced antirhamnose antibodies for each affinity probe 1–3. […] Association was monitored for 900 (B) or 600 (C) seconds. The loaded biosensor probe was then dipped into a dissociation solution of 100 mM L-rhamnose for 600 s. Association curves were fit to a two-phase association model in GraphPad Prism using Kfast to calculate kon. Dissociation curves were similarly fit to a two-phase decay using Kfast to calculate koff. TEXT PRINTED IN THE PICTURE: (B) no label printed: Polyclonal Human IgG: Kd ≈ 7 x10^-5 M | (C) no label printed: Monoclonal Anti-23F: Kd ≈ 6 x10^-6 M DOUBTS OF THE COPYIST ABOUT THIS PICTURE: Panel B, Kd ≈ 7 x10^-5 M: printed once in the plot with no link to a single curve, so it is unclear which of (1) α–O, (2) α–S and (3) β–S it applies to / Panel C, Kd ≈ 6 x10^-6 M: printed once in the plot with no link to a single curve, so it is unclear which of (1) α–O, (2) α–S and (3) β–S it applies to […]
The advancement of synthetic immunotherapeutic modalities targeting anti-rhamnose antibodies has been complicated by a lack of model monoclonal antibody to enable medicinal chemistry optimization. Previous studies relied on polyclonal antirhamnose sources (e.g., human/rabbit serum) for validation studies. We hypothesized that antibodies induced by vaccination against the 23F serotype of streptococcus pneumonia (which contains α-rhamnose) would serve as a source of novel monoclonal antibodies. FDA-approved vaccines (such as PPV23) can induce anti-23F antibodies, with patient-derived monoclonal anti-23F antibody sequences commercially available.[22]−[24] We proceeded to study anti-23F in BLI assays as done in Figure 1B (Figure 1C, association phase = 125 nM anti-23F). […] Furthermore, given the efficient recognition of α-rhamnose by both endogenous human polyclonal and monoclonal antirhamnose sources, it was selected as the ABD for subsequent cARM development.
General Notes and Materials […]
Biolayer Interferometry (BLI) General notes and Materials
IgG from human serum was purchased from Innovative Research (IHUI GGAP1000MG). Anti -23F antibody was purchased fr om Creative Biolabs (PABX -173). Biolayer Interferometry (BLI) was conducted using a ForteBio Octet Red96, and streptavidin biosensors (Sartorius - 18-5019) or ProG biosensors (Sartorius – 18-5082). For quench, a 5% skim milk (Nestle Carnation Instant Skim Milk) solution in 1X kinetics buffer was used. The instrument was set at 25 °C, with 1000 RPM, and acquisition rate of 5 Hz.
Each well of a black well plate (Greiner Bio -One - 655086) was filled with 200 µL of appropriate solution.
Dissociation buffer was comprised of L-rhamnose (100 mM, Sigma Aldrich – R3875-10G) in 1X kinetics buffer to reduce avidity contribution to dissociation rate (koff).
SDS-PAGE General notes and Materials […]
Carboxyfluorescein was purchased from Sigma Aldrich (21877 -5G-F). IgG from human serum was purchased from Innovative Research (IHUIGGAP1000MG). Anti -23F antibody was purchased from Creative Biolabs (PABX -173). Laemellie Buffer (2x) was purchased from Sigma Aldrich (S3401 -10VL).
Pre-cast Tris-Glycine Gels (4-20%) were purchased from Fisher Scientific (XP04202BOX). […]
A647-alkyne was purchased from Broadpharm (BP-28217). Gels were stained using Coomassie Stain from Bio Rad (1610786), and subsequently imaged using an Odyssey CLX imager. Gels were run at 90V for 15 minutes, followed by […]
ADCC Reporter Assay General notes and Materials […]

[1] = average of three anti-23F concentrations, read-out: Avg Kd

SMILES | kon (125 nM Anti-23F) | koff (125 nM Anti-23F) | Kd (125 nM Anti-23F, read-out: Kd) | anti-23F recognition of glycoside variant | kon (250 nM Anti-23F) | koff (250 nM Anti-23F) | Kd (250 nM Anti-23F, read-out: Kd) | kon (500 nM Anti-23F) | koff (500 nM Anti-23F) | Kd (500 nM Anti-23F, read-out: Kd) | Kd [1]
C[C@@H]1O[C@@H](OCc2cn(CCOCCNC(=O)OCCOCCOCCOCCOCCOCCOCCOCCNC(=O)CCCC[C@@H]3SC[C@@H]4NC(=O)N[C@@H]43)nn2)[C@H](O)[C@H](O)[C@H]1O [compound 1] | 1.1e+06 M⁻¹ s⁻¹ | 5.591 s⁻¹ | 5.2 µM | uniquely specific for α-glycoside variants | 920000 M⁻¹ s⁻¹ | 5.773 s⁻¹ | 6.2 µM | 630000 M⁻¹ s⁻¹ | 4.673 s⁻¹ | 7.4 µM | 6.3 ± 1.1 µM
C[C@@H]1O[C@@H](SCc2cn(CCOCCNC(=O)OCCOCCOCCOCCOCCOCCOCCOCCNC(=O)CCCC[C@@H]3SC[C@@H]4NC(=O)N[C@@H]43)nn2)[C@H](O)[C@H](O)[C@H]1O [compound 2] | 770000 M⁻¹ s⁻¹ | 4.018 s⁻¹ | 5.2 µM | uniquely specific for α-glycoside variants | 730000 M⁻¹ s⁻¹ | 4.378 s⁻¹ | 6 µM | 560000 M⁻¹ s⁻¹ | 3.509 s⁻¹ | 6.2 µM | 5.8 ± 0.5 µM
